According to patent US8252814B2, “Agents and crystals for improving excretory potency of urinary bladder” (priority 1998, dated 2012):
Where two headings read alike, the source gives them in different places. Marks after values point to notes of the source that are not given here.

Tests used:
[1] = system: guinea pigs; assay: Effect on urination efficiency in guinea pigs, Experimental Example 3; assay type: in vivo, Hartley male guinea pigs; conditions: guinea pig; for Efficiency of Urination (%) Before adm.: before administration; for Efficiency of Urination (%) After adm. / Improvement of Efficiency (%): 10 minutes after administration
Excerpt: Effect of the compounds of Reference Examples on urination efficiency was examined using Hartley male guinea pigs. Six to ten Hartley male guinea pigs weighing 346.5±3.5 g (SLC) were employed in each treated group. Guinea pigs were anesthetized with urethane, and held, and the bladder was exposed. Two polyethylene tubes (PE-50 and PE-100) were inserted into the bladder. One (PE-50) of the tubes was used in infusion of physiological saline, and the other (PE-100) was used for measurement of the internal pressure of the bladder. Saline was infused continuously at a flow rate of 0.3 mL/min. The infusion was stopped at the time when intermittent urination was confirmed at least 3 times, and the whole saline in bladder was removed. Again, infusion was started, and stopped at the time when a rise of the pressure in bladder was confirmed immediately before urination, and the time required for infusion and the weight of excreted urine were measured. Efficiency of urination was calculated from the following equation. Efficiency of urination (%)=100×Excreted volume (mL)/Infusion time (min)×0.3 (mL/min)
Measurement was made at least 2 times before administration of the test compound, and then the test compound was dissolved in distilled water and administered intravenously. […] Effect by administration of solvents was also confirmed.
The average measured value before administration of the test compounds was regarded as the value before administration, and applied to the paired-t test for a significant difference test with the value after the administration. (** p<0.01, * p<0.05)

[2] = target: T1, acetylcholinesterase of human erythrocyte origin (Homo sapiens, UniProt P22303); assay: Measurement of acetylcholinesterase-inhibiting action (acetylthiocholine / Ellman method), Experimental Example 1; assay type: biochemical; conditions: at least 3 experiments
T1 construct: Acetylcholinesterase of human erythrocyte origin (Sigma Chemical Co.); purchased Sigma Chemical Co; host or cells: human erythrocytes (natural source)
Method: Acetylcholinesterase-inhibiting action of the compounds disclosed in Reference Examples was measured using acetylcholinesterase of human erythrocyte origin according to the acetylthiocholine method (Ellman method).
Acetylcholinesterase of human erythrocyte origin (Sigma Chemical Co.) was dissolved in distilled water at a concentration of 0.2 IU/mL to give an enzyme authentic sample. To a 96-well microplate was dispensed 20 μL of drug solution, 30 μL of 80 mM Tris-HCl (pH 7.4), 50 μL of enzyme authentic sample and 50 μL of 5 mM 5,5-dithio-bis(2-nitrobenzoic acid) (Sigma Chemical Co.), and the plate was shaken for 10 seconds. Then, 50 μL of acetylthiocholine iodide (Sigma Chemical Co.) was added, and the plate was again shaken. Immediately after shaking, increase of extinction at […] was measured at intervals of 30 seconds for 10 minutes. The enzyme activity was determined according to the following equation.
The experiment was repeated at least 3 times for each compound to obtain 50% inhibitory concentration (IC50). Moreover, in the same manner as mentioned above, acetylcholinesterase-inhibiting activity of distigmine was measured.

[3] = system: urinary bladder; assay: Potentiation effect for rhythmic contraction of urinary bladder in guinea pig, Experimental Example 2; assay type: in vivo, Hartley male guinea pigs; conditions: Cavia porcellus, iv, read-out: AUC200 (mg/kg, i.v.)
Method: Potentiation effect of the compounds disclosed in Reference Examples for rhythmic contraction of urinary bladder was examined using Hartley male guinea pigs. Hartley male guinea pigs (SLC) weighing about 300 g were anesthetized with urethane (1.2 g/kg, i.p.), held, and incised at the midline of abdomen to expose the bladder. The urethra was ligated, and a polyethylene tube (PE-50) was inserted into the bladder. The internal pressure of the bladder was measured with a blood pressure amplifier (Nippon Koden), and the data was collected on a personal computer through an A/D converter (MP-30, Biopac Systems). A proper amount of physiological saline was injected into the bladder through a cannula to induce rhythmic contraction of the to bladder.
The area (AUC) that is formed by a curve of the internal pressure of the bladder and a base line was calculated through analytical software (Studentlab pro 2.1.5, Biopac Systems) to evaluate the effect of the test compounds. The curve of the internal pressure is made based on the bladder contraction immediately before administration of the test compound and the first contraction 5 minutes after the administration. From the dose-dependent curve of AUC, the dose at which AUC before drug administration was increased 2 times (AUC200) was calculated to determine potency of contraction-enhancing effect of the test compounds for the muscle of urinary bladder. In addition, the potency of contraction-enhancing effect of […] for the muscle of bladder was determined in the same manner as mentioned above.

[4] = system: guinea pigs; assay: Effect on the flow rate of urine in guinea pigs, single or combined use, Experimental Example 4; assay type: in vivo, Hartley male guinea pigs; conditions: guinea pig; for Improvement (%): 10 minutes after administration
Excerpt: Effect on the flow rate of urine by single or combined use of Compounds of Reference Examples, distigmine, prazosin, and tamsulosin was examined using Hartley male guinea pigs. Four to six Hartley male guinea pigs weighing about 350 g (SLC) were employed in each treated group. Guinea pigs were anesthetized with urethane, and held, and the bladder was exposed. Two polyethylene tubes (PE-100) were inserted into the bladder. One of the tubes was used in infusion of physiological saline, and the other used for measurement of the internal pressure of the bladder. Saline was infused continuously at a flow rate of 0.3 mL/min. The infusion was stopped at the time when intermittent urination was confirmed at least 3 times, and the whole saline in bladder was removed. Again, infusion was started, and stopped at the time when a rise of the pressure in bladder was confirmed immediately before urination. Excreted urine was weighed on an electronic force balance (HX-400, A&D). Analogue data of the internal pressure of the bladder and urine weight were input in an AD converter (MP-30, Biopac Systems) and the digital signal was analyzed by means of purpose-made software (Student lab pro 2.1.5, Biopac Systems). Sampling interval of the date was fixed at 0.1 second, and the value of urine weight was differentiated to determine the flow rate of urine. In order to remove data noise of the excretion volume and flow rate of urine, the data was adapted to a lowcut filter at 0.5 Hz.
Measurement was made 2 times before administration of the test compound, and then the test compound was administered intravenously. Again, measurement was made 10 minutes after administration of the test compound.
The average measured value before administration of the test compounds was regarded as the value before administration, and the rate of change of the values from the ante-administration to the post-administration was calculated to compare between the groups by means of the Dunnet's test.

[5] = urethane-anesthetized guinea pig, dose at which AUC of bladder internal pressure before drug administration was increased 2 times

T1 sequence (P22303 32-617 isoform P22303-2 limits assumed): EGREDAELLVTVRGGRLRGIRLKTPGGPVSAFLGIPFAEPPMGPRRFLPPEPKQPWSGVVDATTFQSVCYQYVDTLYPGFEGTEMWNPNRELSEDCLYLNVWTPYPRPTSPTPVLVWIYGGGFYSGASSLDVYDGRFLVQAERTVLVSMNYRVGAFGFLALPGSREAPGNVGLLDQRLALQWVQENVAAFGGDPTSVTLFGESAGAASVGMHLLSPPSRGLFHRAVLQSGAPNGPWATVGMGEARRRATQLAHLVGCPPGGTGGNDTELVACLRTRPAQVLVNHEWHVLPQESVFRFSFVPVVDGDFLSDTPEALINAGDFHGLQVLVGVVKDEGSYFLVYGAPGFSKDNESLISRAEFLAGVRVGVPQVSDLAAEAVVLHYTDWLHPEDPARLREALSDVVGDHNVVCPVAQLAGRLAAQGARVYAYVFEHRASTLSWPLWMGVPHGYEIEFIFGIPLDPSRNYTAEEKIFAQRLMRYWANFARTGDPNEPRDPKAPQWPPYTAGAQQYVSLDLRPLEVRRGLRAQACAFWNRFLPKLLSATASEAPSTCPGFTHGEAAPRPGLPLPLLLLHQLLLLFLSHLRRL

## Nc1c2c(nc3ccccc13)CCCC2 [compound 30]
[1]; 0.3 mg/kg i.v. group (Ref. Ex. 30)
  Efficiency of Urination (%) Before adm.: 62.2 ± 5.1%
[1]; 0.3 mg/kg i.v.
  Efficiency of Urination (%) After adm.: 74.5 ± 5.1%
  Improvement of Efficiency (%): 22.0** %
[1]; 1.0 mg/kg i.v. group (Ref. Ex. 30)
  Efficiency of Urination (%) Before adm.: 62.8 ± 7.8%
[1]; 1.0 mg/kg i.v.
  Efficiency of Urination (%) After adm.: 84.9 ± 4.8%
  Improvement of Efficiency (%): 55.4* %
[1]; 3.0 mg/kg i.v. group (Ref. Ex. 30)
  Efficiency of Urination (%) Before adm.: 65.8 ± 8.9%
[1]; 3.0 mg/kg i.v.
  Efficiency of Urination (%) After adm.: 89.0 ± 2.7%
  Improvement of Efficiency (%): 64.2* %

## O=C(CCC1CCN(Cc2ccccc2Cl)CC1)c1cc2c3c(c1)CCN3C(=O)CC2 [compound 14]
[2]
  IC50: 9.9 nM
[3]; [5]
  ED (2-fold bladder contraction AUC): 0.0016 mg/kg

## N#Cc1cccc(CN2CCC(CCC(=O)c3cc4c5c(c3)CCN5C(=O)CC4)CC2)c1 [Reference Example 1]
[2]
  IC50: 13.6 nM
[3]; [5]
  ED (2-fold bladder contraction AUC): 0.005 mg/kg

## O=C(CCC1CCN(Cc2ccccc2O)CC1)c1cc2c3c(c1)CCN3C(=O)CC2 [compound 13]
[2]
  IC50: 5.2 nM
[3]; [5]
  ED (2-fold bladder contraction AUC): 0.0013 mg/kg

## O=C(CCC1CCN(Cc2cccc(Cl)c2)CC1)c1cc2c3c(c1)CCN3C(=O)CC2 [compound 4]
[2]
  IC50: 10.9 nM
[3]; [5]
  ED (2-fold bladder contraction AUC): 0.005 mg/kg

## CCOc1ccccc1OCCN[C@H](C)Cc1ccc(OC)c(S(N)(=O)=O)c1 [Tamsulosin]
[4]; tamsulosin 0.1 mg/kg i.v. group, before administration (Table 9)
  Flow Rate (mL/sec) Ante-admn.: 0.16 ± 0.01 mL/s
[4]; tamsulosin 0.1 mg/kg i.v., 10 minutes after administration (Table 9)
  Flow Rate (mL/sec) Post-admn.: 0.14 ± 0.02 mL/s
[4]; tamsulosin 0.1 mg/kg i.v., control distilled water (Table 9)
  Improvement (%): −11.8 ± 4.8%

## O=C(CCC1CCN(Cc2cccc(F)c2)CC1)c1cc2c3c(c1)CCN3C(=O)CC2 [Reference Example 15, 8-[3-[1-[(3-fluorophenyl)methyl]-4-piperidinyl]-1-oxopropyl]-1,2,5,6-tetrahydro-4H-pyrrolo[3,2,1-ij]quinolin-4-one]
[2]
  IC50: 4.4 nM
[3]; [5]
  ED (2-fold bladder contraction AUC): 0.0013 mg/kg
[1]; 0.003 mg/kg i.v. group
  Efficiency of Urination (%) Before adm.: 71.5 ± 7.9%
[1]; 0.003 mg/kg i.v.
  Efficiency of Urination (%) After adm.: 79.6 ± 6.4%
  Improvement of Efficiency (%): 16.2%
[1]; 0.01 mg/kg i.v. group
  Efficiency of Urination (%) Before adm.: 60.0 ± 7.7%
[1]; 0.01 mg/kg i.v.
  Efficiency of Urination (%) After adm.: 93.9 ± 3.0%
  Improvement of Efficiency (%): 77.0** %
[1]; 0.03 mg/kg i.v. group
  Efficiency of Urination (%) Before adm.: 65.5 ± 9.0%
[1]; 0.03 mg/kg i.v.
  Efficiency of Urination (%) After adm.: 88.9 ± 3.1%
  Improvement of Efficiency (%): 66.2* %
[4]; Ref. Ex. 15 0.001 mg/kg i.v. group, before administration (Table 9)
  Flow Rate (mL/sec) Ante-admn.: 0.17 ± 0.03 mL/s
[4]; Ref. Ex. 15 0.001 mg/kg i.v., 10 minutes after administration (Table 9)
  Flow Rate (mL/sec) Post-admn.: 0.15 ± 0.02 mL/s
[4]; Ref. Ex. 15 0.001 mg/kg i.v., control distilled water (Table 9)
  Improvement (%): −6.5 ± 12.1%
[4]; Ref. Ex. 15 0.01 mg/kg i.v. group, before administration (Table 8)
  Flow Rate (mL/sec) Ante-admn.: 0.27 ± 0.03 mL/s
[4]; Ref. Ex. 15 0.01 mg/kg i.v., 10 minutes after administration (Table 8)
  Flow Rate (mL/sec) Post-admn.: 0.29 ± 0.05 mL/s
[4]; Ref. Ex. 15 0.01 mg/kg i.v., control DMSO (Table 8)
  Improvement (%): 6.81 ± 7.84%

## O=C(CCC1CCN(Cc2cccc([N+](=O)[O-])c2)CC1)c1cc2c3c(c1)CCN3C(=O)CC2 [compound 12]
[2]
  IC50: 8.1 nM
[3]; [5]
  ED (2-fold bladder contraction AUC): 0.006 mg/kg

## Cc1ccccc1CN1CCC(CCC(=O)c2cc3c4c(c2)CCN4C(=O)CC3)CC1 [compound 7]
[2]
  IC50: 22.1 nM
[3]; [5]
  ED (2-fold bladder contraction AUC): 0.0055 mg/kg

## O=C(CCC1CCN(Cc2ccccc2)CC1)c1cc2c3c(c1)CC(=O)N3CCC2 [compound 18]
[2]
  IC50: 10.9 nM
[3]
  ED (2-fold bladder contraction AUC): 0.0051 mg/kg

## COc1cc2nc(N3CCN(C(=O)c4ccco4)CC3)nc(N)c2cc1OC [Prazosin]
[4]; prazosin 0.1 mg/kg i.v. group, before administration (Table 8)
  Flow Rate (mL/sec) Ante-admn.: 0.18 ± 0.03 mL/s
[4]; prazosin 0.1 mg/kg i.v., 10 minutes after administration (Table 8)
  Flow Rate (mL/sec) Post-admn.: 0.17 ± 0.02 mL/s
[4]; prazosin 0.1 mg/kg i.v., control DMSO (Table 8)
  Improvement (%): 0.97 ± 10.32%

## O=C(CCC1CCN(Cc2ccccc2)CC1)c1cc2c3c(c1)CCN3C(=O)CC2 [Reference Example 17, 8-[3-[1-(phenylmethyl)-4-piperidinyl]-1-oxopropyl]-1,2,5,6-tetrahydro-4H-pyrrolo[3,2,1-ij]quinolin-4-one]
[2]
  IC50: 7.8 nM
[3]
  ED (2-fold bladder contraction AUC): 0.0034 mg/kg

## Cc1cccc(CN2CCC(CCC(=O)c3cc4c5c(c3)CCN5C(=O)CC4)CC2)c1 [compound 6]
[2]
  IC50: 18.9 nM
[3]; [5]
  ED (2-fold bladder contraction AUC): 0.0049 mg/kg
